Assay [1] has as its system HMG-CoA reductase (Rattus norvegicus). The assay can be described thus: In vitro inhibition of rat liver microsomal HMG-CoA reductase activity; No Activity. (Liver microsomes are vesicles of endoplasmic reticulum, rich in cytochrome P450 enzymes.)
Assay [2] in a line: Ratio of the mean IC50 for sterol-synthesis inhibition of testes relative to hepatocytes in rat. The format is functional, Hepatocyte.
Assay [3] is described as follows: Ratio of the mean IC50 for sterol-synthesis inhibition of hepatocytes relative to hepatocytes in rat. The format is functional, Hepatocyte.
Assay [4] in a line: Ratio of the mean IC50 for sterol-synthesis inhibition of spleen relative to hepatocytes in rat. Format: functional, Hepatocyte.
Assay [5] can be described thus: Ratio of the mean IC50 for sterol-synthesis inhibition of adrenal relative to hepatocytes in rat. The format is functional, Hepatocyte.

In the case of `Cn1nnnc1C(/C=C/[C@H]1C[C@H](O)CC(=O)O1)=C(c1ccc(F)cc1)c1ccc(F)cc1`, the IC50 entry in assay [1] is given as “Not Active”.

Take `Cn1nnnc1C(/C=C/[C@@H]1C[C@@H](O)CC(=O)O1)=C(c1ccc(F)cc1)c1ccc(F)cc1`: the Ratio in assay [2] turned out to be 86; in assay [3], 1; in assay [4], 149; in assay [5], 76.

On to `CC[C@H](C)C(=O)O[C@H]1C[C@@H](C)C=C2C=C[C@H](C)[C@H](CC[C@@H]3C[C@@H](O)CC(=O)O3)[C@H]21` [LOVASTATIN], for which the Ratio was determined as 1.3 in assay [2], 1 in assay [3], 1.2 in assay [4] and 1 in assay [5].

For the origin of these results see ChEMBL document CHEMBL1124578, “A potent, tissue-selective, synthetic inhibitor of HMG-CoA reductase” (J Med Chem, 1989).
